Experimental data taken from US9783543B2, “Aminoimidazopyridazines” (BAYER PHARMA AKTIENGESELLSCHAFT, priority 2012, dated 2017).
Like-named read-outs stand apart in the source and are kept apart here.

Columns and labels:
human full-length MKNK1 = human full-length MKNK1 (Homo sapiens (Human), UniProt Q9BUB5, T344D); experiment: MKNK1 kinase high ATP assay (TR-FRET, 2 mM ATP); type: biochemical
Procedure: MKNK1 Kinase High ATP Assay
MKNK1-inhibitory activity at high ATP of compounds of the present invention after their preincubation with MKNK1 was quantified employing the TR-FRET-based MKNK1 high ATP assay as described in the following paragraphs.
(§1) A recombinant fusion protein of Glutathione-S-Transferase (GST, N-terminally) and human full-length MKNK1 (amino acids 1-424 and T344D of accession number BAA 19885.1), expressed in insect cells using baculovirus expression system and purified via glutathione sepharose affinity chromatography, was purchased from Carna Biosciences (product no 02-145) and used as enzyme. As substrate for the kinase reaction the biotinylated peptide biotin-Ahx-[…] (C-terminus in amide form) was used, which can be purchased e.g. from the company Biosyntan (Berlin-Buch, Germany).
(§2) For the assay 50 nL of a 100 fold concentrated solution of the test compound in DMSO was pipetted into a black low volume 384 well microtiter plate (Greiner Bio-One, Frickenhausen, Germany), 2 μL of a solution of MKNK1 in aqueous assay buffer [50 mM HEPES pH 7.5, 5 mM magnesium chloride, 1.0 mM dithiothreitol, 0.005% (v/v) Nonidet-P40 (Sigma)] was added and the mixture was incubated for 15 min at 22° C. to allow pre-binding of the test compounds to the enzyme before the start of the kinase reaction. Then the kinase reaction was started by the addition of 3 μL of a solution of adenosine-tri-phosphate (ATP, 3.3 mM=>final conc. in the 5 μL assay volume is 2 mM) and substrate (0.1 μM=>final conc. in the 5 μL assay volume is 0.06 μM) in assay buffer and the resulting mixture was incubated for a reaction time of 30 min at 22° C. The concentration of MKNK1 was adjusted depending of the activity of the enzyme lot and was chosen appropriate to have the assay in the linear range, typical concentrations were in the range of 0.003 μg/mL. The reaction was stopped by the addition of 5 μL of a solution of TR-FRET detection reagents (5 nM streptavidine-XL665 [Cisbio Bioassays, Codolet, France] and 1 nM anti-ribosomal protein S6 (pSer236)-antibody from Invitrogen [#44921G] and 1 nM LANCE EU-W1024 labeled ProteinG [Perkin-Elmer, product no. AD0071]) in an aqueous EDTA-solution (100 mM EDTA, 0.1% (w/v) bovine serum albumin in 50 mM HEPES pH 7.5).
(§3) The resulting mixture was incubated for 1 h at 22° C. to allow the formation of complex between the phosphorylated biotinylated peptide and the detection reagents. Subsequently the amount of phosphorylated substrate was evaluated by measurement of the resonance energy transfer from the Eu-chelate to the streptavidine-XL. Therefore, the fluorescence emissions at 620 nm and 665 nm after excitation at 350 nm were measured in a TR-FRET reader, e.g. a Rubystar (BMG Labtechnologies, Offenburg, Germany) or a Viewlux (Perkin-Elmer). The ratio of the emissions at 665 nm and at 622 nm was taken as the measure for the amount of phosphorylated substrate.

human full-lengt MKNK1 = human full-lengt MKNK1 (Homo sapiens (Human), UniProt Q9BUB5, T344D); experiment: MKNK1 kinase assay (TR-FRET, 10 μM ATP); type: biochemical
Chain of human full-lengt MKNK1 (Q9BUB5 other isoform, or with tags, fused parts or gaps T344D): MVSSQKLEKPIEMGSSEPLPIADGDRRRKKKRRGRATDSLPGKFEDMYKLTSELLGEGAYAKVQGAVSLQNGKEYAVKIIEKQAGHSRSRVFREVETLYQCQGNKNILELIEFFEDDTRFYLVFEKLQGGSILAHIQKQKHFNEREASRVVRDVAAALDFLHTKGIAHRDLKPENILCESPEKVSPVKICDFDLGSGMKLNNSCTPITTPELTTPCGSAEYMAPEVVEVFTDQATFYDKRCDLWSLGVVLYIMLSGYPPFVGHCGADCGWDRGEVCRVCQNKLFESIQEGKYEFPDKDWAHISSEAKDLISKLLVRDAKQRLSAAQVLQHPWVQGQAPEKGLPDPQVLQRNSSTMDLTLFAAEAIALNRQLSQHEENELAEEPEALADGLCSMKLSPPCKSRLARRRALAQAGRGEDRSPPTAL
Text: MKNK1-inhibitory activity of compounds of the present invention was quantified employing the MKNK1 TR-FRET assay as described in the following paragraphs.
as §1, with “human full-lengt” for “human full-length”, “was used” for “was used,”, “e.g. form” for “e.g. from”
as §2, with “16.7 μM=>final” for “3.3 mM=>final”, “10 μM)” for “2 mM)”, “45” for “30”, “0.05 μg/ml.” for “0.003 μg/mL.”
as §3

[1] = read-out: IC50 MKNK1 (2 mM ATP), 15 min preincubation, GST-MKNK1 T344D
[2] = read-out: IC50 MKNK1 (10 μM ATP), 15 min preincubation, GST-MKNK1 T344D
[3] = 15 min preincubation, GST-MKNK1 T344D

Chain of human full-length MKNK1 (Q9BUB5 other isoform, or with tags, fused parts or gaps T344D): as above

IC50 (human full-length MKNK1; [1]) [nM] | IC50 (human full-lengt MKNK1; [2]) [nM] | IC50 (human full-length MKNK1; [3]) [nM] | IC50 (human full-lengt MKNK1; [3]) [nM] | Compound
30 | 10 |  |  | O[C@H]1CCC[C@H]1Nc1ccc2ncc(-c3cc4ccccc4o3)n2n1 [Example 3, (1S,2R)-2-{[3-(1-Benzofuran-2-yl)imidazo[1,2-b]pyridazin-6-yl]amino}cyclopentanol]
52 | 14 |  |  | O[C@H]1C[C@H](Nc2ccc3ncc(-c4cc5cnccc5o4)n3n2)C1 [Example 11, trans-3-{[3-(Furo[3,2-c]pyridin-2-yl)imidazo[1,2-b]pyridazin-6-yl]amino}cyclobutanol]
41 | 14 |  |  | O[C@@H]1CCC[C@H]1Nc1ccc2ncc(-c3cc4ccccc4o3)n2n1 [Example 4, (1R,2R)-2-{[3-(1-Benzofuran-2-yl)imidazo[1,2-b]pyridazin-6-yl]amino}cyclopentanol]

The remaining lines, values behind:

Compound | IC50 (human full-length MKNK1; [1]) [nM] | IC50 (human full-lengt MKNK1; [2]) [nM] | IC50 (human full-length MKNK1; [3]) [nM] | IC50 (human full-lengt MKNK1; [3]) [nM]
O[C@H]1CCC[C@@H]1Nc1ccc2ncc(-c3cc4ccccc4o3)n2n1 [Example 6, (1S,2S)-2-{[3-(1-Benzofuran-2-yl)imidazo[1,2-b]pyridazin-6-yl]amino}cyclopentanol] | 52 | 22 |  | 
O[C@H]1C[C@H](CNc2ccc3ncc(-c4cc5ccccc5o4)n3n2)C1 [Example 2, trans-3-({[3-(1-Benzofuran-2-yl)imidazo[1,2-b]pyridazin-6-yl]amino}methyl)-cyclobutanol] |  |  | 21 | 9
O[C@@H]1CCCC[C@H]1Nc1ccc2ncc(-c3cc4ccccc4o3)n2n1 [Example 9, (1R,2R)-2-{[3-(1-Benzofuran-2-yl)imidazo[1,2-b]pyridazin-6-yl]amino}cyclohexanol] | 210 | 318 |  | 
O[C@H]1CCCC[C@@H]1Nc1ccc2ncc(-c3cc4ccccc4o3)n2n1 [Example 8, (1S,2S)-2-{[3-(1-Benzofuran-2-yl)imidazo[1,2-b]pyridazin-6-yl]amino}cyclohexanol] | 94 | 126 |  | 
OC[C@H]1C[C@H](Nc2ccc3ncc(-c4cc5ccccc5o4)n3n2)C1 [Example 1, (trans-3-{[3-(1-Benzofuran-2-yl)imidazo[1,2-b]pyridazin-6-yl]amino}cyclobutyl)methanol] | 11 | 8 |  | 
O[C@H]1CC[C@H](Nc2ccc3ncc(-c4cc5ccccc5o4)n3n2)CC1 [Example 10, trans-4-{[3-(1-Benzofuran-2-yl)imidazo[1,2-b]pyridazin-6-yl]amino}cyclohexanol] | 31 | 12 |  | 
O[C@@H]1CCC[C@@H]1Nc1ccc2ncc(-c3cc4ccccc4o3)n2n1 [Example 7, (1R,2S)-2-{[3-(1-Benzofuran-2-yl)imidazo[1,2-b]pyridazin-6-yl]amino}cyclopentanol] | 66 | 24 |  | 
O[C@@H]1CCCC[C@@H]1Nc1ccc2ncc(-c3cc4ccccc4o3)n2n1 [Example 5, (1R,2S)-2-{[3-(1-Benzofuran-2-yl)imidazo[1,2-b]pyridazin-6-yl]amino}cyclohexanol] | 49 | 42 |  | 
